Reference: ChEMBL document CHEMBL3351435, “New pyrrole derivatives with potent tubulin polymerization inhibiting activity as anticancer agents including hedgehog-dependent cancer” (J Med Chem, 2014)
pIC50: −log10 of the molar value. Activity calls are given as the source filed them. The rule behind the calls is not given here.

Tests used:
[1] = system: RD; experiment: Cell cycle arrest in human RD cells assessed as accumulation at G2/M phase at 500 nM after 24 hrs by propidium iodide staining-based flow cytometry; format: functional
[2] = system: RD; experiment: Cell cycle arrest in human RD cells at 1000 to 2000 nM incubated for 24 hrs followed by compound washout measured after 24 hrs; format: functional, cell-based
[3] = Cell cycle arrest in human PC3 cells at 500 to 2000 nM incubated for 24 hrs followed by compound washout measured after 24 hrs; format: functional, cell-based; details: PC-3
[4] = Cell cycle arrest in human PC3 cells assessed as accumulation at G2/M phase at 500 nM after 24 hrs by propidium iodide staining-based flow cytometry; format: functional; details: PC-3
[5] = system: HepG2; experiment: Cell cycle arrest in human HepG2 cells at 500 to 2000 nM incubated for 24 hrs followed by compound washout measured after 24 hrs; format: functional, cell-based
[6] = system: RD; experiment: Cell cycle arrest in human RD cells assessed as rounded cells at 500 nM after 24 hrs by propidium iodide staining-based flow cytometry; format: functional
[7] = system: RD; experiment: Cell cycle arrest in human RD cells at 500 nM incubated for 24 hrs followed by compound washout measured after 24 hrs; format: functional, cell-based
[8] = Cell cycle arrest in human PC3 cells assessed as rounded cells at 500 nM after 24 hrs by propidium iodide staining-based flow cytometry; format: functional; details: PC-3
[9] = target: Tubulin; experiment: Inhibition of tubulin (unknown origin) polymerization incubated 15 mins prior to GTP addition by spectrophotometry; format: protein-complex assay, Homo sapiens
[10] = Cytotoxicity against human MESSA/DX5 cells assessed as growth inhibition after 72 hrs by CellTitre-Glo assay; format: functional, cell-based; details: MES-SA/Dx5, 72 h
[11] = system: HT-29; experiment: Cytotoxicity against human HT-29 cells assessed as growth inhibition after 48 hrs by MTT method; format: functional, cell-based; details: HT-29, 48 h
[12] = system: NCI/ADR-RES; experiment: Cytotoxicity against human NCI/ADR-RES cells assessed as growth inhibition after 96 hrs by Giemsa staining-based light microscopy; format: functional, cell-based
[13] = cells; details: Homo sapiens, OVCAR-8, 96 h
Description: Cytotoxicity against human OVCAR8 cells assessed as growth inhibition after 96 hrs by Giemsa staining-based light microscopy

[14] = system: HeLa; experiment: Cytotoxicity against human HeLa cells assessed as growth inhibition after 48 hrs by MTT method; format: functional, cell-based
[15] = Cytotoxicity against human MESSA cells assessed as growth inhibition after 72 hrs by CellTitre-Glo assay; format: functional, cell-based; details: MES-SA
[16] = system: A549; experiment: Cytotoxicity against human A549 cells assessed as growth inhibition after 48 hrs by MTT method; format: functional, cell-based; details: A549, 48 h
[17] = system: MCF7; experiment: Cytotoxicity against human MCF7 cells after 96 hrs by Giemsa staining-based light microscopy; format: functional, cell-based; details: MCF7, 96 h
[18] = target: T1, Tubulin (Homo sapiens) (UniProt P68371+Q9H4B7+P0DPH7+P68366+Q13509+Q71U36+P04350+Q3ZCM7+P07437+P68363+Q9BQE3+Q6PEY2+Q13885+Q9BVA1+Q9BUF5); experiment: Displacement of [3H]colchicine from tubulin (unknown origin) at 5 uM after 10 mins; format: protein-complex assay
[19] = target: T1, Tubulin (Homo sapiens); experiment: Inhibition of tubulin (unknown origin) polymerization at 20 uM incubated 15 mins prior to GTP addition by spectrophotometry; format: protein-complex assay
[20] = system: K562; experiment: Cell cycle arrest in human K562 cells assessed as mitotic index at 10 times IC50 (reference value: […] +/- […]%); format: functional
[21] = system: K562; experiment: Cell cycle arrest in human K562 cells assessed as mitotic index at 4 uM (reference value: 3 +/- 1%)
[22] = system: K562; experiment: Cytotoxicity against human K562 cells assessed as growth inhibition after 96 hrs by Giemsa staining-based light microscopy; format: functional, cell-based; details: K562, 96 h
[23] = system: HeLa; experiment: Cell cycle arrest in human HeLa cells assessed as mitotic rounded-up phenotype at 20 nM by light microscopy; format: functional, cell-based
[24] = system: HepG2; experiment: Cytotoxicity against human HepG2 cells assessed as growth inhibition after 48 hrs by MTT method; format: functional, cell-based; details: HepG2, 48 h
[25] = system: HeLa; experiment: Cell cycle arrest in human HeLa cells assessed as accumulation at G2/M phase at 20 nM by propidium iodide staining-based flow cytometry; format: functional
[26] = system: RD; experiment: Cytotoxicity against human RD cells assessed as growth inhibition after 48 hrs by MTT method; format: functional, cell-based

SMILES	pIC50 [9]	pIC50 [17]	inhibition [18] [%]	further results
CC[C@]1(O)C[C@H]2CN(CCc3c([nH]c4ccccc34)[C@@](C(=O)OC)(c3cc4c(cc3OC)N(C=O)[C@H]3[C@@](O)(C(=O)OC)[C@H](OC(C)=O)[C@]5(CC)C=CCN6CC[C@]43[C@@H]65)C2)C1				Activity [1]: Active; Activity [2]: inactive; Activity [3]: inactive; Activity [4]: Active; Activity [5]: inactive; Activity [6]: Active; Activity [7]: Active; Activity [8]: Active
COc1ccc(-n2ccc(C(=O)c3cc(OC)c(OC)c(OC)c3)c2)cc1	5.92	6.60	76	pIC50 [10]: 7.06; pIC50 [11]: 6.70; pIC50 [12]: 7.77; pIC50 [13]: 7.22; pIC50 [14]: 6.82; pIC50 [15]: 7.20; pIC50 [16]: 7.10
COc1cc(C(=O)c2ccn(-c3ccccc3F)c2)cc(OC)c1OC	6.00	6.00	77	
COc1cc(C(=O)c2cc[nH]c2)cc(OC)c1OC	< 4.40			
COc1ccc(-n2ccc(C(=O)c3cc(OC)c(OC)c(OC)c3)c2)cc1N	5.89	6.33	89	
COc1cc(C(=O)c2ccn(-c3cccc(C)c3)c2)cc(OC)c1OC	6.02	7.30	79	
COc1ccc(-n2ccc(C(=O)c3cc(OC)c(OC)c(OC)c3)c2)cc1OC(C)C	5.77		48	pIC50 [11]: 6.10; pIC50 [14]: 6.10; pIC50 [16]: 6.00
COc1cccc(-n2ccc(C(=O)c3cc(OC)c(OC)c(OC)c3)c2)c1	5.74	6.22	66	pIC50 [10]: 6.33; pIC50 [11]: 6.10; pIC50 [12]: 7.05; pIC50 [13]: 6.60; pIC50 [14]: 6.00; pIC50 [15]: 6.58; pIC50 [16]: 5.52
COc1cc(C(=O)c2ccn(-c3cccc([N+](=O)[O-])c3)c2)cc(OC)c1OC	5.05			
COc1cc(C(=O)c2ccn(-c3ccc(OC(C)C)cc3)c2)cc(OC)c1OC				inhibition [19]: inactive
COc1cc(C(=O)c2ccn(-c3ccc(F)cc3)c2)cc(OC)c1OC	5.85	6.72	78	
COc1cc(C(=O)c2ccn(-c3ccccc3O)c2)cc(OC)c1OC	5.77	6.28	67	
COc1cc(C(=O)c2ccn(-c3ccccc3OC(C)C)c2)cc(OC)c1OC	5.21			
COc1cc(C(=O)c2ccn(-c3ccccc3C)c2)cc(OC)c1OC	4.89			
COc1cc(C(=O)c2ccn(-c3cccc(NS(C)(=O)=O)c3)c2)cc(OC)c1OC	6.07	7.22	84	Activity [20]: 61%
COc1cc(C(=O)c2ccn(-c3ccccc3[N+](=O)[O-])c2)cc(OC)c1OC				inhibition [19]: inactive
COc1cc(C(=O)c2ccn(-c3ccc(Cl)cc3)c2)cc(OC)c1OC	5.64	6.70	73	
COc1ccc(-n2ccc(C(=O)c3cc(OC)c(OC)c(OC)c3)c2)cc1[N+](=O)[O-]		6.08		
COc1cc(C(=O)c2ccn(-c3cccc(O)c3)c2)cc(OC)c1OC	5.92	6.40	86	
COc1cc(C(=O)c2ccn(-c3ccc(N)cc3)c2)cc(OC)c1OC	5.89	7.82	81	
COc1ccc(-n2ccc(C(=O)c3cc(OC)c(OC)c(OC)c3)c2)cc1O	5.89	5.35	79	pIC50 [11]: < 5.00; pIC50 [14]: 6.70; pIC50 [16]: < 5.00
COc1cc(C(=O)c2ccn(-c3ccccc3Cl)c2)cc(OC)c1OC	5.06	5.35		
COc1cc(C(=O)c2ccn(-c3cccc(NC(C)C)c3)c2)cc(OC)c1OC	5.60	7.70	53	Activity [21]: 69%; pIC50 [22]: 6.30
COc1cc(C(=O)c2ccn(-c3ccc(O)cc3)c2)cc(OC)c1OC		6.35	59	

SMILES	pIC50 [9]	pIC50 [17]	inhibition [18] [%]	further results
COc1cc(C(=O)c2ccn(-c3cccc(-n4cccc4)c3)c2)cc(OC)c1OC	5.60	7.37	27	Activity [20]: 47%; pIC50 [22]: 7.05
COc1cc(-n2ccc(C(=O)c3ccccc3)c2)cc(OC)c1OC				inhibition [19]: inactive
COc1cc(C(=O)c2ccn(-c3cccc(N(C)C)c3)c2)cc(OC)c1OC	5.82	6.00	60	
COc1cc(C(=O)c2ccn(-c3ccc(C)cc3)c2)cc(OC)c1OC	6.05		95	Activity [20]: 61%; pIC50 [22]: 7.52
O=C(c1ccccc1)c1ccn(-c2ccccc2)c1				inhibition [19]: inactive
COc1ccc(C(=O)c2ccn(-c3cc(OC)c(OC)c(OC)c3)c2)cc1O				inhibition [19]: inactive
COc1ccccc1-n1ccc(C(=O)c2cc(OC)c(OC)c(OC)c2)c1	5.57	5.46	50	pIC50 [10]: 6.19; pIC50 [11]: 6.00; pIC50 [12]: 6.70; pIC50 [13]: 6.35; pIC50 [14]: 6.05; pIC50 [15]: 6.29; pIC50 [16]: 6.00
COc1cc(C(=O)c2ccn(-c3cc(OC)c(OC)c(OC)c3)c2)cc(OC)c1OC	< 4.40			
COc1cc(C(=O)c2ccn(Cc3ccccc3)c2)cc(OC)c1OC	< 4.40			
COc1cc(C(=O)c2ccn(S(=O)(=O)c3ccccc3)c2)cc(OC)c1OC	4.80			
COc1cc(C(=O)c2ccn(-c3cccc(N4CCCCC4)c3)c2)cc(OC)c1OC				inhibition [19]: inactive
COc1ccc(-n2ccc(C(=O)c3cc(OC)c(OC)c(OC)c3)c2)cc1OC	5.68	7.00	56	
COc1cc(C(=O)c2ccn(-c3cccc(OCc4ccccc4)c3)c2)cc(OC)c1OC				inhibition [19]: inactive
COc1ccc(C(=O)c2ccn(-c3cc(OC)c(OC)c(OC)c3)c2)cc1OC(C)C				inhibition [19]: inactive
COc1cc(C(=O)c2ccn(-c3ccc([N+](=O)[O-])cc3)c2)cc(OC)c1OC				inhibition [19]: inactive
COc1cc(C(=O)c2ccn(-c3cccc(OC(C)C)c3)c2)cc(OC)c1OC	5.60	6.60	17	
CNc1cccc(-n2ccc(C(=O)c3cc(OC)c(OC)c(OC)c3)c2)c1	6.00		92	Activity [20]: 61%; pIC50 [22]: 7.52
CC[C@]1(O)C[C@@H]2CN(CCc3c([nH]c4ccccc34)[C@@](C(=O)OC)(c3cc4c(cc3OC)N(C)[C@H]3[C@@](O)(C(=O)OC)[C@H](OC(C)=O)[C@]5(CC)C=CCN6CC[C@]43[C@@H]65)C2)C1 [VINBLASTINE]				Activity [23]: Active; Activity [1]: Active; pIC50 [10]: 6.84; Activity [2]: inactive; pIC50 [24]: 7.09; Activity [3]: inactive; Activity [25]: Active; Activity [4]: Active; Activity [5]: inactive; pIC50 [26]: 7.28; Activity [6]: Active; Activity [7]: Active; pIC50 [13]: 7.82; Activity [8]: Active; pIC50 [15]: 8.52
COc1cc(C(=O)c2ccn(-c3cccc(Cl)c3)c2)cc(OC)c1OC	5.66	6.22	58	
COc1cc(C(=O)c2ccn(C)c2)cc(OC)c1OC	< 4.40			
COc1cc(C(=O)c2ccn(-c3cccc(F)c3)c2)cc(OC)c1OC	5.68	5.89	55	
COc1cc(C(=O)c2ccn(-c3cccc(N4CCCC4)c3)c2)cc(OC)c1OC	5.60	7.80	23	Activity [21]: 39%; pIC50 [22]: 6.02
COc1cc(C(=O)c2ccn(-c3ccccc3N)c2)cc(OC)c1OC	5.17			
